Data reported in ChEMBL document CHEMBL3046495, “CoMFA, ADVANCE CoMFA AND CoMSIA STUDIES ON THE OXADIAZOLE SUBSTITUTED -ISOPROPOXY PHENYLPROPIONIC ACIDS FOR PPAR AGONISTIC ACTIVITY” (Med Chem Res, 2004).

Molecular target: T1, Peroxisome proliferator-activated receptor alpha (Homo sapiens, UniProt Q07869)
T1 sequence (Q07869 whole entry): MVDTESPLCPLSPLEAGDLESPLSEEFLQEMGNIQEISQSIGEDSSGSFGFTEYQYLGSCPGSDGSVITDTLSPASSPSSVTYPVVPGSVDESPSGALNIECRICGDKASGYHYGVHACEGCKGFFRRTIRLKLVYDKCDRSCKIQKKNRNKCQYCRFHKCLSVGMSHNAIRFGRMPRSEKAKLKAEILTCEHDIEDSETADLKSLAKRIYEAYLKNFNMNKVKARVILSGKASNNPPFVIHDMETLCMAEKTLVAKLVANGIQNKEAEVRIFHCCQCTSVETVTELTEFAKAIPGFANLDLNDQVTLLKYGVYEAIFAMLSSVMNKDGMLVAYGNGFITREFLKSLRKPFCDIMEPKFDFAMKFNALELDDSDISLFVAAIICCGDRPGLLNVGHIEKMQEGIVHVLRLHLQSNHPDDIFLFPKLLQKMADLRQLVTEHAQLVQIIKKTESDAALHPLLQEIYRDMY
Assay: Agonist activity at PPARalpha (unknown origin)

SMILES | EC50 [nM]
CC(C)OC(Cc1ccc(OCCc2noc(C3CCCCC3)n2)cc1)C(=O)O (configuration not stated) | 240
CC(C)Cc1ccc(-c2nc(COc3ccc(CC(OC(C)C)C(=O)O)cc3)no2)cc1 (configuration not stated) | 40
